Patent US20200323897A1, “METHODS FOR DISTRIBUTING AGENTS TO AREAS OF BRAIN” (Medtronic, Inc., priority 2010, published 2020)

How the values were obtained:
[1] = Intracerebroventricular (lateral ventricle) infusion at low flow rates, distribution tracked by MRI; type: in vivo, rhesus monkey; conditions: ICV
Description: (§1) CADD ambulatory infusion pumps were used to deliver gadolinium (Gd) labeled diethylene triamine pentaacetic acid (DTPA) or Gd-labeled albumin to rhesus monkeys, either intrathecally or intracerebroventricularly. Distribution of the Gd-labeled agents was tracked in-life via magnetic resonance imaging (MRI).
(§2) For the Gd-DTPA studies, various concentrations of the Gd-DTPA were administered. The Gd-DTPA was administered intrathecally at L2 or intracerebroventricularly via a lateral ventricle at a variety of flow rates. Within a given monkey various flow rates were tested, followed by a washout period with phosphate buffered saline (PBS). An example study design that was used is presented below in Table 2:
Referring now to FIGS. 8A-F, MM images of a rhesus monkey receiving various concentrations of Gd-DPTA intracerebroventricularly at various flow rates are shown. FIG. 8A is an MRI image of a monkey receiving PBS prior to infusion of the Gd-DPTA. FIG. 8B is an MM image of a monkey receiving 486 mg/ml at 0.048 ml/day. FIG. 8C is an MRI image of a monkey receiving 280 mg/ml at 0.1 ml/day. FIG. 8D is an MRI image of a monkey receiving 70 mg/ml at 0.4 ml/day. FIG. 8E is an MRI image of a monkey receiving 35 mg/ml at 0.8 ml/day. FIG. 8F is an MM image of a monkey receiving 22 mg/ml at 1.2 ml/day. […] Accordingly, broad distribution appears to be achievable at low flow rates, regardless of the CSF site of administration.
Referring now to FIGS. 11A-F, MRI images of a rhesus monkey receiving various concentrations of Gd-albumin intracerebroventricularly at various flow rates are shown. FIG. 11A is an MM image of a monkey receiving PBS prior to infusion of the Gd-albumin. FIG. 11B is an MM image of a monkey receiving 100 mg/ml at 0.1 ml/day at one day of infusion. FIG. 11C is an MRI image of a monkey receiving 100 mg/ml at 0.4 ml/day at one day of infusion. FIG. 11D is an MRI image of a monkey receiving 100 mg/ml at 0.4 ml/day at three days of infusion. FIG. 11E is an MRI image of a monkey receiving 100 mg/ml at 0.8 ml/day at one day of infusion. FIG. 11F is an MRI image of a monkey receiving 64 mg/ml at 1.2 ml/day at one day of infusion.

[2] = Intrathecal (L2) infusion at low flow rates, distribution tracked by MRI; type: in vivo, rhesus monkey
Description: as §1, §2
While not detectable at lower concentrations, it is believed that the distribution of the lower concentration agent was similar to that observed at the 70 mg/ml concentration at similar flow rates. […] FIG. 6A is an MRI image of the same monkey prior to infusion of Gd-DTPA.
For the Gd-albumin studies, various concentrations of the Gd-albumin were administered intrathecally at L2 at various flow rates. FIGS. 9A-E are MRI images of rhesus monkeys receiving intrathecal Gd-albumin.

[3] = Infusion into the CSF at low flow rates (IT or ICV), overall statements on distribution; type: in vivo, rhesus monkey
Description: as §1

[4] = humans, intrathecal, constant rate of 0.5 ml/day; cited from earlier work

Structure (SMILES)	steady state distribution in the CSF ([1]; 0.048 mL/day)	steady state distribution in the CSF ([1]; 0.1 mL/day)	distribution within the CSF ([1]; 0.1 mL/day for a period of 6 hours)	distribution in the CSF (FIG. 8) ([1]; flow rates of about 0.05 ml/day or greater, 22-486 mg/ml)	uptake by brain tissue (FIG. 7B) ([2]; IT L2, 70 mg/ml, 2.4 ml/day)	distribution around the spinal cord (FIG. 7D) ([2]; IT L2, 70 mg/ml, 2.4 ml/day, steady state)	distribution in the CSF (FIG. 6) ([2]; IT L2, all flow rates of about 0.4 ml/day or greater)	distribution in the CSF ([2]; IT, 0.1 mL/day)	distribution in the CSF ([2]; IT, 0.4 mL/day, 70 mg/ml)	detectability by MRI ([2]; IT, 0.4 mL/day, lower concentrations (17.5 mg/ml, 5.8 mg/ml, 2.9 mg/ml))	MRI signal intensity ([2]; IT, 2.4 ml/day (100 microliters per hour))	distribution following infusion into the CSF [3]	supraspinal side effects [4]
O=C([O-])CN(CCN(CC(=O)[O-])CC(=O)O)CCN(CC(=O)[O-])CC(=O)O.[Gd+3] [Gd-DTPA, gadolinium (Gd) labeled diethylene triamine pentaacetic acid (DTPA)]	evident in the CSF compartments in and around the brain, but not the spinal cord	complete CSF coverage	distributed broadly throughout the CSF in and around the brain and spinal cord	broadly distributed in the CSF, including in the intrathecal space	appears to be taken up by the parenchymal tissue of the brain	distributed in a circumferential manner around the intrathecal space	broad distribution was observed	confined the molecule in the IT space	broadly distributed throughout the CSF	not appreciably detectable by MRI	signal was most intense	broadly distributed	–
NCC(CC(=O)O)c1ccc(Cl)cc1 (centres unmarked) [baclofen]	–	–	–	–	–	–	–	–	–	–	–	–	do not appear to suffer from any supraspinal side effects
CN1CC[C@]23c4c5ccc(O)c4O[C@H]2[C@@H](O)C=C[C@H]3[C@H]1C5 [morphine]	–	–	–	–	–	–	–	–	–	–	–	–	do not appear to suffer from any supraspinal side effects
